According to patent publication US5459126A, “Method for decreasing calcium uptake by cells using selected polycations” (California Institute of Technology, priority 1993, dated 1995):
“Also recorded” adds a separate entry of the source.

Experiments:
Assay type in all cases: cell-based
mammalian cells = test: calcium uptake inhibition in cell culture, noxious stimulus not specified
[1] = test system: neonatal rat cardiomyocytes; test: 45Ca uptake by cultured cardiomyocytes exposed to hydrogen peroxide (free radical attack), on-line isotopic technique
Protocol: Protamine is a strong polycationic polypeptide used extensively for heparin reversal after cardiopulmonary bypass. The drug is known to be negatively inotropic. The neonatal rat cardiomyocytes were cultured according to the procedure described by Frank et al.(13).
Ca fluxes were measured by an on-line isotopic technique (13). The myocytes were cultured onto scintillant-containing discs which were mounted in a flow cell so that the cells were in direct contact with perfusate. The flow cell was placed between two opposing […] tubes. Cell-associated Ca was then recorded in counts per minute. ^45 Ca^2+ is a low energy beta-emitter. The radioactivity contained within the perfusate is counted with very low efficiency (<5%) whereas that within the cells is counted with an efficiency of 39%. In all of the examples the cells were initially perfused with non isotopic solution to remove any debris. Perfusion with ^45 Ca^2+ containing solution was then commenced at 10 ml/minute and continued until the cells were labelled to asymptote. […] The flow cell was then drained and refilled with a solution containing hydrogen peroxide. The cells were then incubated for 60 minutes with continuous recording of ^45 Ca labeling (no flow) prior to washout with non-isotopic perfusate.
After asymptotic labeling with ^45 Ca, the cells were perfused with a solution containing protamine sulfate at varying concentrations. […] The flow cell was then drained and refilled with a solution containing 50 μM H2 O2 and protamine. The procedure was repeated with protamine in varying concentrations: 1 μM (n=4); 5 μM (n=6) and 50 μM (n=6).
(§1) At the end of each experiment the discs were removed from the flow cell, allowed to dry and the cells were scraped onto a pre-weighed piece of filter paper. This was placed in an oven (>100° C.) overnight and then weighed, permitting determination of the cellular dry weight. The specific activity of each isotopic solution was measured in a […] (Beckman Instruments) and cell-associated Ca was expressed in mmoles/kg dry cellular weight. The cell cultures were maintained at 37° C.

[2] = test system: neonatal rat cardiomyocytes; test: 45Ca uptake by metabolically inhibited cardiomyocytes (iodoacetic acid + 2-deoxyglucose); conditions: for inhibition of calcium uptake: iodoacetic acid and 2-deoxyglucose
Protocol: Ca fluxes were measured by an on-line isotopic technique (13). The myocytes were cultured onto scintillant-containing discs which were mounted in a flow cell so that the cells were in direct contact with perfusate. The flow cell was placed between two opposing […] tubes. Cell-associated Ca was then recorded in counts per minute. ^45 Ca^2+ is a low energy beta-emitter. The radioactivity contained within the perfusate is counted with very low efficiency (<5%) whereas that within the cells is counted with an efficiency of 39%. In all of the examples the cells were initially perfused with non isotopic solution to remove any debris. Perfusion with ^45 Ca^2+ containing solution was then commenced at 10 ml/minute and continued until the cells were labelled to asymptote. This normally took 25-30 minutes. The flow cell was then drained and refilled with a solution containing hydrogen peroxide. The cells were then incubated for 60 minutes with continuous recording of ^45 Ca labeling (no flow) prior to washout with non-isotopic perfusate.
as §1
Exposure of neonatal rat cardiomycytes to 0.05 mM iodoacetic acid (IAA), as a glycolytic inhibitor, and 0.5 mM 2-deoxyglucose (2-DOG), as a non-metabolizable substrate, produces a graded depletion in intracellular ATP and induces a significant Ca leak. In the following example involving metabolic inhibition, these two compounds were included in the incubation medium. 2-DOG was added directly and IAA was added from a 1 M stock solution, dissolved in water. The concentration in the culture media was 0.5 mM for 2-DOG and 0.05 mM for IAA.

[3] = calcium leak caused by hydrogen peroxide
[4] = calcium leak caused by metabolic inhibition

Molecule: Gentamicin
- amount required to obtain any significant level of calcium uptake inhibition (mammalian cells): 1.5 mM

Molecule: protamine
- effect on calcium overload (mammalian cells; cell culture concentrations of 5 μM and above): completely prevent calcium overload
- effect on Ca overload ([1]; protamine 1 μM, 50 μM H2O2, 60 min incubation): no effect
- effect on Ca overload / calcium uptake ([1]; protamine 5 μM, 50 μM H2O2, 60 min incubation): prevention of calcium uptake; also recorded: completely prevented the Ca overload
- effect on Ca overload ([1]; protamine concentration above 5 μM (50 μM tested), 50 μM H2O2): no additional effect
- effect of protamine on Ca overload after neutralizing its positive charge with heparin ([1]; protamine plus heparin, H2O2): completely inhibited
- Ca uptake on perfusion with the agent alone ([1]; protamine sulfate at varying concentrations, after asymptotic 45Ca labeling, before H2O2): did not significantly alter Ca uptake
- effect on calcium uptake ([2]; concentrations below 5 μM, 0.05 mM IAA + 0.5 mM 2-DOG): did not exert a significant effect
- effect on calcium uptake ([2]; concentrations of 5 μM and higher, 0.05 mM IAA + 0.5 mM 2-DOG): prevention of calcium uptake; also recorded: dramatic drop in calcium uptake

Molecule: polymyxin B sulfate [PXB]
- inhibition of calcium uptake ([2]; 100 μM): substantially inhibited

Molecule: CCCCCCCCCCCC[N+](C)(C)C.[Br-] [DDTMA, dodecyltrimethylammonium bromide]
- inhibition of calcium uptake ([2]; 50 μM): significant inhibition of calcium uptake

Molecule: hexamedronium bromide [Polybrene]
- inhibition of calcium leak [1, 3]: inhibited the calcium leak
- threshold concentration above which inhibition was significant [1, 3]: 25 µM
- effect on calcium uptake ([1]; polybrene 25 μM, free radical attack (FIG. 4)): prevention of calcium uptake
- inhibition of calcium leak [2, 4]: inhibited the calcium leak
- threshold concentration above which inhibition was significant [2, 4]: 25 µM
- effect on calcium uptake ([2]; polybrene 25 μM, metabolically inhibited cells (FIG. 5)): prevention of calcium uptake
